Data: ChEMBL document CHEMBL1139221, “2-(4-Chlorobenzyl)-3-hydroxy-7,8,9,10-tetrahydrobenzo[H]quinoline-4-carboxylic acid (PSI-697): identification of a clinical candidate from the quinoline salicylic acid series of P-selectin antagonists” (J Med Chem, 2007)
In brackets after ≈: the same amount, converted by molar mass.

Columns and labels:
[1] = target: T1, P-selectin (Homo sapiens, UniProt P16109); assay: Inhibition of P-Selectin by Biacore assay
T1 sequence (P16109 whole entry): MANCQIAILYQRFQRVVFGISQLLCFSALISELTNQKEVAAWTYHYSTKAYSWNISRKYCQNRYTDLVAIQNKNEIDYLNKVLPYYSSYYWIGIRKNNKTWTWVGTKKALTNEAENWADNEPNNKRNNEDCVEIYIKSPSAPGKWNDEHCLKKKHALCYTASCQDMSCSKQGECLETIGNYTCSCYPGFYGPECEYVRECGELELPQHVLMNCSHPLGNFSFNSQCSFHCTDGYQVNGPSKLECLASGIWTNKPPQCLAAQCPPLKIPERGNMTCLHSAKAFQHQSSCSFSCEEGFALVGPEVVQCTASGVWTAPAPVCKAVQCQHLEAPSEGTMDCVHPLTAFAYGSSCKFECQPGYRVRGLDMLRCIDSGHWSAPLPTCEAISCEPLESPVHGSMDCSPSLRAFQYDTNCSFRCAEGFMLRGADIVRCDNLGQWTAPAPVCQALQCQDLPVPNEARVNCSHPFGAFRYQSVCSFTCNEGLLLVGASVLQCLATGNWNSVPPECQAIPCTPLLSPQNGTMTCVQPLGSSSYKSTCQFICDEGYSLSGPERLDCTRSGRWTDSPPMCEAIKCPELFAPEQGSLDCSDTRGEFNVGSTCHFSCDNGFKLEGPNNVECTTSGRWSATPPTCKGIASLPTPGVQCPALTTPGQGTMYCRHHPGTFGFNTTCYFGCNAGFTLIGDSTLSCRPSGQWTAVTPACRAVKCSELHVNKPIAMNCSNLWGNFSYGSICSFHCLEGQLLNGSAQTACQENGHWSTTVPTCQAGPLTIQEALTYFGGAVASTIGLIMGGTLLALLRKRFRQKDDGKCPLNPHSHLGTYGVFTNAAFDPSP

[2] = species on record: Rattus norvegicus; assay: AUC in Sprague-Dawley rat; format: ADME, organism-based, Plasma; conditions: in vivo
[3] = species on record: Mus musculus; assay: AUC in C57 mouse; format: ADME, organism-based, Plasma; conditions: in vivo
[4] = Bioavailability in C57 mouse; format: ADME, organism-based; conditions: in vivo
[5] = Bioavailability in Sprague-Dawley rat; format: ADME, organism-based; conditions: in vivo
[6] = Inhibition of leukocyte rolling in mouse at 50 mg/kg, po; format: functional
[7] = Stability in rat liver microsome; format: ADME; conditions: liver microsomes
[8] = Oral bioavailability in Beagle dog at 15 mg/kg; format: ADME, organism-based, Canis lupus familiaris; conditions: in vivo
[9] = system: Rattus norvegicus; assay: Inhibition of neointimal hyperplasia in Sprague-Dawley rat carotid ballon injury model at 30 mg/kg, po; format: functional
[10] = system: Mus musculus; assay: Inhibition of aortic lesion in apo E -/- mouse model at 100 mg/kg; format: functional; conditions: Aorta
[11] = Solubility at pH 7.4; format: physicochemical; conditions: buffer

Row | Compound | IC50 [1] [µM] | AUC/dose [2] [µg·h/mL] | AUC/dose [3] [µg·h/mL] | bioavailability [4] [%] | bioavailability [5] [%] | inhibition in vivo at 50 mg/kg [6] [%] | half-life [7] [min] | bioavailability [8] [%] | inhibition in vivo at 30 mg/kg [9] [%] | inhibition in vivo at 100 mg/kg [10] [%] | solubility [11] [µg/mL]
1 | O=C(O)c1c(O)c(Cc2c[nH]c3ccccc23)nc2c3c(ccc12)CCCC3 | 225 | 0.607 | 0.218 | 30 | 41 | 62 | – | – | – | – | –
2 | O=C(O)c1c(O)c(Cc2ccccc2Cl)nc2c3c(ccc12)CCCC3 | 123 | – | – | – | – | – | 6 | – | – | – | –
3 | O=C(O)c1c(O)c(Cc2ccc(Cl)cc2)nc2c3c(ccc12)CCCC3 [PSI-697] | 125 | 0.62 | 1.5 | 100 | 20 | 56 | – | 58 | 40 | 49 | –
4 | O=C(O)c1c(O)c(Cc2c[nH]c3ccc(Cl)cc23)nc2c3c(ccc12)CCCC3 | 175 | 0.096 | – | – | 5 | – | – | – | – | – | 20 (≈ 49.2 µM)
5 | O=C(O)c1c(O)c(Cc2cccc(Cl)c2)nc2c3c(ccc12)CCCC3 | 138 | – | – | – | – | – | 6 | – | – | – | –
6 | O=C(O)c1c(O)c(Cc2c[nH]c3ccc(Cl)cc23)nc2c(C(F)(F)F)cccc12 | 250 | – | – | – | – | 23 | – | – | – | – | –
